# Assay results published in BindingDB's records for doi:10.1111/j.1747-0285.2009.00860.x (National University of Singapore, 2009).
# Target: T1, Dihydrofolate reductase (Bos taurus, UniProt P00376)
# T1 sequence (P00376 whole entry): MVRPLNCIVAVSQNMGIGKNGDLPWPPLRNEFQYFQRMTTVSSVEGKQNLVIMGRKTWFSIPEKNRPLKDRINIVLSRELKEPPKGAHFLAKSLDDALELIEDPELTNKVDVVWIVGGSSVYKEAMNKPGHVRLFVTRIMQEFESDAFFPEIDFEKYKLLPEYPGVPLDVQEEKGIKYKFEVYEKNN
# Experiment: Inhibition Assay
# Source text: Inhibition activity using bovine dihydrofolate reductase (DHFR).
row,SMILES,IC50
1,"NC1=NC2(CCCC2)N(OCCCc2ccccc2)C(N)=N1 [6,8,10-Traiazaspiro[4.5]deca-6,8-diene-7,9-diamine, Id]",20.1 nM
2,"NC1=NC2(CCCCC2)N(OCc2ccccc2)C(N)=N1 [1,3,5-Triazaspiro[5.5]undeca-1,3-diene-2,4-diamine, IIb]",1790 nM
3,"NC1=NC2(CCCC2)N(OCCCCOc2ccccc2)C(N)=N1 [6,8,10-Traiazaspiro[4.5]deca-6,8-diene-7,9-diamine, Ig]",42.2 nM
4,"NC1=NC2(CCCCC2)N(Cc2ccccc2)C(N)=N1 [1,3,5-Triazaspiro[5.5]undeca-1,3-diene-2,4-diamine, IIa]",> 50000 nM
5,"NC1=NC2(CCCC2)N(Cc2ccccc2)C(N)=N1 [6,8,10-Traiazaspiro[4.5]deca-6,8-diene-7,9-diamine, Ia]",> 50000 nM
6,"NC1=NC2(CCCC2)N(OCCc2ccccc2)C(N)=N1 [6,8,10-Traiazaspiro[4.5]deca-6,8-diene-7,9-diamine, Ic]",31 nM
7,"NC1=NC2(CCCCC2)N(OCCCc2ccccc2)C(N)=N1 [1,3,5-Triazaspiro[5.5]undeca-1,3-diene-2,4-diamine, IId]",31.9 nM
8,"CN(CCCON1C(N)=NC(N)=NC12CCCCC2)c1ccccc1 [1,3,5-Triazaspiro[5.5]undeca-1,3-diene-2,4-diamine, IIf]",41.4 nM
9,"NC1=NC2(CCCCC2)N(OCCCCOc2ccccc2)C(N)=N1 [1,3,5-Triazaspiro[5.5]undeca-1,3-diene-2,4-diamine, IIg]",155 nM

# These reach a lower IC50. Values come first.
row,IC50,SMILES
1,6.9 nM,NC1=NC2(CCCCC2)N(OCCCOc2ccccc2)C(N)=N1
2,14.9 nM,"CN(CCCON1C(N)=NC(N)=NC12CCCC2)c1ccccc1 [6,8,10-Traiazaspiro[4.5]deca-6,8-diene-7,9-diamine, If]"
3,9.4 nM,"NC1=NC2(CCCCC2)N(OCCc2ccccc2)C(N)=N1 [1,3,5-Triazaspiro[5.5]undeca-1,3-diene-2,4-diamine, IIc]"
4,2.3 nM,NC1=NC2(CCCC2)N(OCCCOc2ccccc2)C(N)=N1
